Measurements from PubChem BioAssay (NCI).
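Following 48 hours of exposure in 96-well plates, responses at five concentrations were used to interpolate endpoints linearly. TGI is the concentration that stops growth completely.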

Experiments:
Test in all cases: NCI tumour cell line growth inhibition, 48 h
DMS 114 small cell lung = tested on: DMS 114 small cell lung
KM20L2 colon = tested on: KM20L2 colon
M19-MEL melanoma = tested on: M19-MEL melanoma
P388 leukemia = tested on: P388 leukemia
P388/ADR leukemia = tested on: P388/ADR leukemia
SN12K1 renal = tested on: SN12K1 renal
SNB-78 CNS = tested on: SNB-78 CNS
MDA-N = tested on: MDA-N
RXF-631 renal = tested on: RXF-631 renal

| Structure (SMILES) | TGI (DMS 114 small cell lung) [µM] | TGI (KM20L2 colon) [µM] | TGI (M19-MEL melanoma) [µM] | TGI (P388 leukemia) [µM] | TGI (P388/ADR leukemia) [µM] | TGI (SN12K1 renal) [µM] | TGI (SNB-78 CNS) [µM] | TGI (MDA-N) [µM] | TGI (RXF-631 renal) [µM] |
| --- | --- | --- | --- | --- | --- | --- | --- | --- | --- |
| Nc1nc2c(ncn2C2OC(CO)C(O)C2O)c(=O)[nH]1 (stereo unspecified) | 214 | 214 | 206 | 44.5 | 80.3 | 259 | 300 | – | – |
| CCCC/C=C1/CCC(CN(C)C)C1=O (stereo unspecified) | 3.92 | 5.59 | 3.05 | 0.366 | 0.396 | 1.9 | 5.21 | 5.2 | 3.27 |
